One data set deals with EOC-20 cells. The protocol:
(§1) Lower IC50 values indicate improved efficacy. FIG. 2 illustrates the principle of the measurement using NDGA as an example test agent. In order to determine viability, cell culture medium was replaced with phenol-free DMEM (Gibco) containing 20 μL/mL of MTT viability reagent (Promega). […] Control cells were taken to indicate 100% viability and intermediate values of MTT reduction were scaled to percentage of control. For each compound, an LD50 value was determined by extrapolation through sublethal concentrations. This value represents the concentration that reduced the MTT viability parameter by 50%.

For data set [1], the system named is TNFα-Stimulated NO2^− Production in EOC-20 Cells. Briefly: TNFα-stimulated nitrite (NO2−) production in EOC-20 microglial cells, Griess assay. Format: cell-based, mouse. The settings on record: for IC50: read-out: IC50. The protocol:
Cells were cultured in 24 well plates until confluent then treated with test agent, which was dissolved at 100× final concentration in dimethylsulfoxide (DMSO), or with vehicle only. Thirty minutes after treatment with test agent, cells were treated with 10 ng/mL recombinant mouse TNFα (Pharmingen, San Diego, Calif. USA). […] Each compound was tested at 100 μM, 20 μM, 4 μM, 0.8 μM and 0 μM in the presence of TNFα. Four wells of cells were used for each concentration of test agent.
as §1
In general terms: The Griess reaction detects nitrite, a stable product of nitric oxide.

Another data set has as its system LnCAP Production of PSA. Briefly: LnCAP production of PSA (ELISA). The format is cell-based. The settings on record: 24 h. The protocol: LnCAP prostate cancer cells were be cultured according to established methods (Horoszewicz et al., 1983). These cells product prostate-specific antigen (PSA), a serine protease that predicts metastatic potential ([…] et al., 2000). […] Each drug was tested in triplicate at each concentration. Medium was removed and tested for PSA concentration using a commercially available enzyme-linked immunosorbent assay (ELISA). Viability was determined in the adherent cells using the MTT assay.

Another data set relates to lipoxygenase. The settings on record: cited from earlier work.
The subject of data set [2] is TNFα-Mediated Nitrite Production in EOC-20 Cells. Put plainly: Leukotrienes added to EOC-20 cells with or without low-dose TNFα, nitrite at 24 h. The settings on record: for autonomous stimulation of NO2− production: without TNFα. The format is cell-based, mouse. The protocol:
Because 5LOX inhibitors tended to antagonize TNFα, the converse experiment was performed of directly adding 5LOX metabolites to EOC-20 cells in the presence or absence of TNFα. LTB4 was added to microglia at 10 μM and TNFα was added at a low dose (4 ng/mL) 10 min later. Nitrite was assayed at 24 h. […] Similar examples exist in the literature of LTB4 synergizing with IFNγ to activate macrophages (Talvani et al., 2002).

The next data set relates to C57/B6 mice. Briefly: 3-nitropropionic acid (3NP) striatal damage model, rotarod and balance beam. Format: in vivo. The following applies: 2500 ppm in diet for one month, then 3NP 50 mg/kg i.p. every 12 h for 5 days. The protocol:
Mice were then injected with 50 mg/kg 3NP intraperitoneally, every 12 h for 5 days. Motor performance was assessed daily by a rotarod task and balance was assessed by a balance wire task. In the rotarod task (Hensley et al. 2002), animals were placed on a bar rotating at 1 rpm and accelerating 10 rpm/minute until the animal fell from the bar. In the balance beam test, mice were placed on a 2-cm balance beam by suspending them by the tail, orienting them perpendicular to the beam, and placing the forepaws followed by hindpaws on the balance beam. Mice were left on the beam until they fell onto a soft cushion 75 cm below or until 5 min elapsed. The longest time of each pair of trials was used for statistical analysis.
For orientation: In the rotarod test animals must keep their balance on a rotating rod.

Data set [3] relates to C6 astrocyte culture exposed to lipopolysaccharide plus interferon gamma. The following applies: LPS-stimulated C6 astrocyte model, Soliman et al., 1998; cited from earlier work.
In another data set the test system is G93A-SOD1 mice. The following applies: administered chronically; Gurney et al., 1996; cited from earlier work.
The subject of data set [4] is pro-inflammatory cytokines in EOC-20 microglial cells. Briefly: Multiprobe ribonuclease protection assay of cytokine transcription in TNFα-stimulated EOC-20 cells. The format is cell-based, mouse. The source says: It was noted that IL1β, IL1RA, IFNγ and MIF were affected by the treatments, while IL18 was not.
In another data set the target is T1, human wild-type SOD1 (Homo sapiens, UniProt P00441).
T1 construct: purified to homogeneity from human erythrocytes; from tissue; host or cells: human erythrocytes
T1 sequence (P00441 2-154 limits assumed): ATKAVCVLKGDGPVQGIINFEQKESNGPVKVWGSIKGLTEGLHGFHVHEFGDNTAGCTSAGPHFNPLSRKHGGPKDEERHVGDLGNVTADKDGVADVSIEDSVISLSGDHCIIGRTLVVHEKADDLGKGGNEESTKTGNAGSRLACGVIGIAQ
Put plainly: BIAcore binding of 5LOX to immobilized SOD1. The settings on record: preliminary Scatchard analysis, upper bound. The source says: Using several techniques that allow the study of protein-protein binding interactions in vitro, the interaction of SOD1 with 5LOX may be investigated. One approach involves the use of BIAcore instrumentation (Amersham-Pharmacia, Upsala, Sweden). The BIA (biomolecular interaction analysis) system consists of a solid-phase support upon which a protein (the ligand) can be covalently immobilized. This surface is placed in contact with a microfluidic cartridge, which dispenses a second protein (the analyte) across the binding surface. Adherence of the analyte to the immobilized ligand is measured by surface plasmon resonance (SPR) spectrometry. The surface plasmon resonance detector responds to refractive index changes in the vicinity of the sensor surface as the immobilized species interacts with its binding partner in the fluid phase. Data output from the BIAcore instrument takes the form of “sensorgrams” (FIG. 14A). Sensorgrams can be interpreted qualitatively, to assess whether a nonspecific binding event occurs, or quantitatively, in order to measure binding affinity.
In a previous experiment, human wild-type SOD1 (purified to homogeneity from human erythrocytes) was covalently immobilized to the BIAcore chip via surface lysine residues, using standard carbodiimide coupling chemistry. […] Experiments to quantitate the binding affinity are conducted. […]
In general terms: SPR reads the build-up and loss of mass on a sensor chip optically.

Setting [5] is: Mus musculus, 24 h, Table III, 10 ng/mL TNFα, 24 hr, by interpolation.
[6] abbreviates: Homo sapiens, LNCaP, extrapolated.
[7] abbreviates: Table III, 10 ng/mL TNFα, 24 hr, by interpolation.
Where [8] appears, read: Table III, MTT viability, by extrapolation through sublethal concentrations.

Where two headings read alike, the source gives them in different places. Marks after values point to notes of the source that are not given here.

We go through 17 molecules from patent US20040014721A1, “Method for using tethered bis(polyhydroxyphenyls) and O-alkyl derivatives thereof in treating inflammatory conditions of the central nervous system” (Oklahoma Medical Research Foundation, priority 2002, published 2004).

Regarding `O=c1c(O)c(-c2ccc(O)cc2)oc2cc(O)cc(O)c12` [Kaempherol, 3,4′,5,7-tetrahydroxy-flavone], the LD50 in the data set with EOC-20 cells (mouse) is on record as 70 μm. Besides, the IC50 in data set [1] (setting [5]) is 47 µM; with LnCAP Production of PSA (Homo sapiens, LNCaP), 68 µM.

Consider `O=c1c(-c2ccc(O)cc2)coc2cc(O)ccc12` [Daidzein, 4,7-dihydroxyisoflavone], for which the figures for the IC50 (in data set [1] (setting [5]); in the data set with LnCAP Production of PSA (setting [6])) were 114 µM and 130 µM, respectively.

For the molecule `Oc1cc(O)c2c(c1)O[C@H](c1ccc(O)c(O)c1)[C@H](O)C2` [Epicatechin], the “IC50 Values (ELISA), PSA production” value in the data set on LnCAP Production of PSA was “Inactive”.

Consider `O=C(/C=C/c1ccc(O)c(O)c1)OCCc1ccccc1` [caffeic acid phenethyl ester (CAPE), caffeic acid phenethyl ester], for which, in the data set on lipoxygenase (times more effective than NDGA, Mirzoeva and Calder, 1996), the “lipoxygenase inhibition relative to NDGA” value is around 10 times. Moreover, the “activity against TNFα-stimulated nitrite production” value in data set [1] was “approximately as effective as curcumin”. For the same molecule, the IC50 in data set [1] (setting [5]) was 12 µM; in [1] (Mus musculus, Table V), 12 µM. The “efficacy relative to NDGA as inhibitor of TNFα-stimulated microglial activation” value in data set [1] (fold less effective than NDGA) was determined as 4 fold.

For `CCCCC/C=C\C[C@@H](O)/C=C/C=C/C=C\[C@@H](O)CCCC(=O)O` [LTB4, Leukotriene B4], the “effect on nitrite yield with low-dose TNFα” value in data set [2] (10 μM, TNFα 4 ng/mL, 24 h) is “synergized with low-dose TNFα to produce a significantly greater nitrite yield”. In addition, the “autonomous stimulation of NO2− production” value in data set [2] was “Neither LTA4 nor LTB4 stimulated NO2^− production autonomously”.

On to `CCCCC/C=C\C\C=C/C=C/C=C/[C@@H]1O[C@H]1CCCC(=O)O` [LTA4], for which, in data set [2], the “autonomous stimulation of NO2− production” value is “Neither LTA4 nor LTB4 stimulated NO2^− production autonomously”.

On to “7-Bis (4-hydroxy-3-methoxyphenyl)-1,6-heptadiene-3,5-dione [Curcumin]”, for which, in the data set on C57/B6 mice, the “balance test” value is listed as “no effect”. Also, the “rotarod test” value with C57/B6 mice was “possibly a detrimental effect”. For the same molecule, the IC50 was 7 µM in [1] (setting [7]), 14 µM in [1] (Table V) and 72 µM in [3].

With `O=C(O[C@@H]1Cc2c(O)cc(O)cc2O[C@@H]1c1ccc(O)c(O)c1)c1cc(O)c(O)c(O)c1` [epicatechin gallate], the IC50 in data set [3] is 10 µM.

As to `COc1ccc(C[C@@H](C)[C@@H](C)Cc2ccc(OC)c(OC)c2)cc1OC` [tetra-o-methyl-NDGA], the LD50 with EOC-20 cells is recorded as 125* μM. Moreover, the “lipoxygenase inhibition” value in the data set on lipoxygenase (literature) is on record as “does not inhibit lipoxygenase”. Moreover, the “activity against TNFα-stimulated nitrite production” value in data set [1] was “modest bioactivity”. For the same molecule, the IC50 in data set [1] (Table V) was found to be 20 µM.

As to `Nc1nc2ccc(OC(F)(F)F)cc2s1` [Riluzole], in the data set on G93A-SOD1 mice, the extension in lifespan is 10 days.

Consider `Oc1ccc(/C=C/c2cc(O)cc(O)c2)cc1` [Resveratrol, 3,4′,5-trihydroxy stilbene], for which the LD50 result with EOC-20 cells is “nontoxic”. The IC50 in data set [1] (setting [5]) amounted to 80 µM; in the data set on LnCAP Production of PSA (Homo sapiens, LNCaP), 43 µM.

On to `O=c1cc(-c2ccccc2)oc2cccc(O)c12` [5-OH-flavone], for which the LD50 in the data set with EOC-20 cells is recorded as 310 μm. For the same molecule, the values for the IC50 (in data set [1] (setting [7]); in the data set on LnCAP Production of PSA (extrapolated)) were 34 µM and 227 µM, respectively.

For `Oc1cc(O)cc(/C=C/c2ccc(O)c(O)c2)c1` [Piceatannol, 3,3′,4′,5 -tetrahydroxy stilbene], the LD50 result in the data set on EOC-20 cells (setting [8]) is recorded as “nontoxic”. The “transcription of pro-inflammatory cytokines” value in [4] is on record as “differentially inhibited transcription of the pro-inflammatory cytokines”. For the same molecule, the IC50 stood at 15 µM in data set [1] (setting [5]) and 42 µM with LnCAP Production of PSA (Homo sapiens, LNCaP).

`O=c1cc(-c2ccccc2)oc2cc(O)cc(O)c12` [Chrysin, 5,7-dihydroxy-flavone]: in the data set with EOC-20 cells (setting [8]), the LD50 is on record as 85 μm. For the same molecule, the IC50 in data set [1] (setting [5]) amounted to 63 µM; with LnCAP Production of PSA (Homo sapiens, LNCaP), 91 µM.

`O=c1c(O)c(-c2ccc(O)cc2O)oc2cc(O)cc(O)c12` [morin]: in data set [3], the IC50 is 56 µM.

In the case of `O=c1c(O)c(-c2ccc(O)c(O)c2)oc2cc(O)cc(O)c12` [Quercetin], the LD50 entry in the data set on EOC-20 cells is listed as “nontoxic”. Also, the IC50 was 44 µM in data set [1] (setting [5]), 131 µM with LnCAP Production of PSA (setting [6]) and 0.062 µM in data set [3].

B1: 5LOX: Human recombinant 5LOX (Cayman Chemical) (protein, UniProt P09917 1-674, looked up)
Polyunsaturated fatty acid …: MPSYTVTVATGSQWFAGTDDYIYLSLVGSAGCSEKHLLDKPFYNDFERGAVDSYDVTVDEELGEIQLVRIEKRKYWLNDDWYLKYITLKTPHGDYIEFPCYRWITGDVEVVLRDGRAKLARDDQIHILKQHRRKELETRQKQYRWMEWNPGFPLSIDAKCHKDLPRDIQFDSEKGVDFVLNYSKAMENLFINRFMHMFQSSWNDFADFEKIFVKISNTISERVMNHWQEDLMFGYQFLNGCNPVLIRRCTELPEKLPVTTEMVECSLERQLSLEQEVQQGNIFIVDFELLDGIDANKTDPCTLQFLAAPICLLYKNLANKIVPIAIQLNQIPGDENPIFLPSDAKYDWLLAKIWVRSSDFHVHQTITHLLRTHLVSEVFGIAMYRQLPAVHPIFKLLVAHVRFTIAINTKAREQLICECGLFDKANATGGGGHVQMVQRAMKDLTYASLCFPEAIKARGMESKEDIPYYFYRDDGLLVWEAIRTFTAEVVDIYYEGDQVVEEDPELQDFVNDVYVYGMRGRKSSGFPKSVKSREQLSEYLTVVIFTASAQHAAVNFGQYDWCSWIPNAPPTMRAPPPTAKGVVTIEQIVDTLPDRGRSCWHLGAVWALSQFQENELFLGMYPEEHFIEKPVKEAMARFRKNLEAIVSVIAERNKKKQLPYYYLSPDRIPNSVAI
For the molecule B1, in the data set with human wild-type SOD1, the Kd is at most 20 µM.

The IC50 is the point on the concentration scale where inhibition reaches its midpoint. By Kd is commonly meant the free concentration of one partner at which half of the binding sites on the other are occupied at equilibrium, for simple one-to-one binding. Lower therefore signals tighter binding.
